Source: US7846959B2, “Raf modulators and methods of use” (Exelixis, Inc., priority 2004, dated 2010)
pIC50: −log10 of the molar value. Where two headings read alike, the source gives them in different places.

What was measured:
B-Raf = B-Raf (Homo sapiens, UniProt P15056); test: Luciferase-coupled chemiluminescence kinase assay (ATP consumption), B-Raf; format: biochemical
Outline: (§1)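 Enzyme ([…]) was pre-incubated with compound for 30 min at room temperature in 20 mM Tris pH 7.5, 10 mM MgCl2, 0.03% TX-100, 1 mM DTT. ATP was added and the reaction ran 3 h at ambient temperature. Remaining ATP was read by luciferase-luciferin chemiluminescence, giving IC50 values.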

c-Raf = c-Raf (Homo sapiens, UniProt P04049); test: Luciferase-coupled chemiluminescence kinase assay (ATP consumption), c-Raf; format: biochemical
Chain of c-Raf (P04049 whole entry): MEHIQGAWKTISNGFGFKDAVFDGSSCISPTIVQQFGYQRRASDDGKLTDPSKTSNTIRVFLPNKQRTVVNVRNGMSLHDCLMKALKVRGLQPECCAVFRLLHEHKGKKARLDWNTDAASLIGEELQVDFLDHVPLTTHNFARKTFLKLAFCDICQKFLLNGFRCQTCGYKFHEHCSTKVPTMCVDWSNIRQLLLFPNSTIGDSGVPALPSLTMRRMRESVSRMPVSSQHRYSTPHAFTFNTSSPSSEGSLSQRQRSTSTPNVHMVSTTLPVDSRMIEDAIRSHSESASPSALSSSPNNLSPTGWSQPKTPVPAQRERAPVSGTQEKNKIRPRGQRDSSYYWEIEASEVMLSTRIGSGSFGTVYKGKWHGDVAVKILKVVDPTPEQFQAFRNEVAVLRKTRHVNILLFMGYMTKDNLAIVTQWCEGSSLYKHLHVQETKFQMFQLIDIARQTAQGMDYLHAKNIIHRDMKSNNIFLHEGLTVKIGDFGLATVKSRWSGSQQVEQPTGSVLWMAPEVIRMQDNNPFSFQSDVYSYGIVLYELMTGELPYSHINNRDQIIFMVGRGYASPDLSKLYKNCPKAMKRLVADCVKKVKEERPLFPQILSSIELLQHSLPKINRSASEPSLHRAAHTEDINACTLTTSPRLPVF
Outline: as §1

[1] = read-out: bRaf (inhibition indicated as IC50)
[2] = read-out: cRaf-1 (inhibition indicated as IC50)

Chain of B-Raf (P15056 whole entry): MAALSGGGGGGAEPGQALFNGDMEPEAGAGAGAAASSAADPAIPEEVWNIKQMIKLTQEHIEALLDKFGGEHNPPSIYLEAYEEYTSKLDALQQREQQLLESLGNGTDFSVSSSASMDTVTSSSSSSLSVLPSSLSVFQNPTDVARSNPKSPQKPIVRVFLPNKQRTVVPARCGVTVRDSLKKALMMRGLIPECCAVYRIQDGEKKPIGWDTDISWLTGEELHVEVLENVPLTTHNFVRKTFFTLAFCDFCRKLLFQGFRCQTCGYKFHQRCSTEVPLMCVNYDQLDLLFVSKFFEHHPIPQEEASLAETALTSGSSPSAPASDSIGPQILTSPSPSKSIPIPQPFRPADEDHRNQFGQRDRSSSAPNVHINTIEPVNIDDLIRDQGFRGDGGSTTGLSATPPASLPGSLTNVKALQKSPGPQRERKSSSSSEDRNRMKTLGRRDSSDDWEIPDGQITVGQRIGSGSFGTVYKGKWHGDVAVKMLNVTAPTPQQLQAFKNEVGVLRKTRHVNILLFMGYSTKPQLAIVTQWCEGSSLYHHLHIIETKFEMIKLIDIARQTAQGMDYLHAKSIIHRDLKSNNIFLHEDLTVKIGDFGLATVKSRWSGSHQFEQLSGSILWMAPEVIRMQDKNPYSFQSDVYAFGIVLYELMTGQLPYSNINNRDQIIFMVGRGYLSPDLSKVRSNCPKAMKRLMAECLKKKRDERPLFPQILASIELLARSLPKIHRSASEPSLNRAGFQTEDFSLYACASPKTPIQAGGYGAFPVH

Compound | pIC50 (B-Raf; [1]) | pIC50 (c-Raf; [2]) | pIC50 (B-Raf; read-out: bRaf IC50) | pIC50 (c-Raf; read-out: cRaf-1 IC50)
C=Cc1cccc(N2C(=O)c3ccccc3C2(O)c2ccc3[nH]c(NC(=O)OC)nc3c2)c1F (stereo not shown) [Entry 366, methyl {5-[2-(3-ethenyl-2-fluorophenyl)-1-hydroxy-3-oxo-2,3-dihydro-1H-isoindol-1-yl]-1H-benzimidazol-2-yl}carbamate] | > 7.00 | > 7.00 | – | –
COC(=O)Nc1nc2cc(C3(O)c4ccccc4C(=O)N3c3cc(Br)c(F)cc3F)ccc2[nH]1 (stereo not shown) [Entry 244, methyl {5-[2-(5-bromo-2,4-difluorophenyl)-1-hydroxy-3-oxo-2,3-dihydro-1H-isoindol-1-yl]-1H-benzimidazol-2-yl}carbamate] | – | – | > 7.00 | > 7.00
O=C1c2ccccc2C(O)(c2ccc3[nH]c(Nc4ncccn4)nc3c2)N1c1cccc(Cl)c1F (stereo not shown) [Entry 354, 2-(3-chloro-2-fluorophenyl)-3-hydroxy-3-[2-(pyrimidin-2-ylamino)-1H-benzimidazol-5-yl]-2,3-dihydro-1H-isoindol-1-one] | > 7.00 | > 7.00 | – | –
COc1cc(OC)nc(Nc2nc3cc(C4(O)c5ccccc5C(=O)N4c4cccc(Cl)c4F)ccc3[nH]2)n1 (stereo not shown) [Entry 386, 3-(2-{[4,6-bis(methyloxy)pyrimidin-2-yl]amino}-1H-benzimidazol-5-yl)-2-(3-chloro-2-fluorophenyl)-3-hydroxy-2,3-dihydro-1H-isoindol-1-one] | > 7.00 | > 7.00 | – | –
COC(=O)Nc1nc2cc(C3(O)c4ccccc4C(=O)N3c3cc(C)cc(C)c3)ccc2[nH]1 (stereo not shown) [Entry 141, methyl {5-[2-(3,5-dimethylphenyl)-1-hydroxy-3-oxo-2,3-dihydro-1H-isoindol-1-yl]-1H-benzimidazol-2-yl}carbamate] | – | – | > 7.00 | > 7.00
COC(=O)Nc1nc2cc(C3(O)c4ccccc4C(=O)N3C(C)c3cc(Br)cs3)ccc2[nH]1 (stereo not shown) [Entry 210, methyl (5-{2-[1-(4-bromo-2-thienyl)ethyl]-1-hydroxy-3-oxo-2,3-dihydro-1H-isoindol-1-yl}-1H-benzimidazol-2-yl)carbamate] | – | – | > 7.00 | > 7.00
CN1CCCC(COC(=O)Nc2nc3ccc(C4(O)c5ccccc5C(=O)N4c4cccc(Cl)c4F)cc3[nH]2)C1 (stereo not shown) [Entry 309, (1-methylpiperidin-3-yl)methyl {6-{2-(3-chloro-2-fluorophenyl)-1-hydroxy-3-oxo-2,3-dihydro-1H-isoindol-1-yl]-1H-benzimidazol-2-yl}carbamate] | > 7.00 | > 7.00 | – | –
COC(=O)Nc1nc2cc(C3(O)c4ccccc4C(=O)N3c3ccc(Br)cc3)ccc2[nH]1 (stereo not shown) [Entry 138, methyl {5-[2-(4-bromophenyl)-1-hydroxy-3-oxo-2,3-dihydro-1H-isoindol-1-yl]-1H-benzimidazol-2-yl}carbamate] | – | – | 6.00 to 7.00 | 6.00 to 7.00
CCN(CC)CCOC(=O)Nc1nc2cc(C3(O)c4ccccc4C(=O)N3c3cccc(Cl)c3F)ccc2[nH]1 (stereo not shown) [Entry 292, 2-(diethylamino)ethyl {5-[2-(3-chloro-2-fluorophenyl)-1-hydroxy-3-oxo-2,3-dihydro-1H-isoindol-1-yl]-1H-benzimidazol-2-yl}carbamate] | > 7.00 | > 7.00 | – | –
COC(=O)Nc1nc2cc(C3(O)c4ccccc4C(=O)N3c3ccc(Cl)cc3)ccc2[nH]1 (stereo not shown) [Entry 139, methyl {5-[2-(4-chlorophenyl)-1-hydroxy-3-oxo-2,3-dihydro-1H-isoindol-1-yl]-1H-benzimidazol-2-yl}carbamate] | – | – | > 7.00 | > 7.00
COC(=O)Nc1nc2ccc(C(=O)c3ccccc3C(=O)Nc3cccc(Cl)c3F)cc2[nH]1 [Entry 407, methyl {6-[(2-{[(3-chloro-2-fluorophenyl)amino]carbonyl}phenyl)carbonyl]-1H-benzimidazol-2-yl}carbamate] | > 7.00 | > 7.00 | – | –
Cc1cccc(N2C(=O)c3ccccc3C2(O)c2ccc3c(c2)NC(=O)CO3)c1 (stereo not shown) [Entry 44, 6-[1-hydroxy-2-(3-methylphenyl)-3-oxo-2,3-dihydro-1H-isoindol-1-yl]-2H-1,4-benzoxazin-3(4H)-one] | – | – | 6.00 to 7.00 | 6.00 to 7.00
COC(=O)Nc1nc2cc(C3(O)c4ccccc4C(=O)N3c3cccc(Cl)c3)ccc2[nH]1 (stereo not shown) [Entry 135, methyl {5-[2-(3-chlorophenyl)-1-hydroxy-3-oxo-2,3-dihydro-1H-isoindol-1-yl]-1H-benzimidazol-2-yl}carbamate] | – | – | > 7.00 | > 7.00
COC(=O)Nc1nc2cc(C3(O)c4ccccc4C(=O)N3c3cc(C)ccc3F)ccc2[nH]1 (stereo not shown) [Entry 380, methyl {5-[2-(2-fluoro-5-methylphenyl)-1-hydroxy-3-oxo-2,3-dihydro-1H-isoindol-1-yl]-1H-benzimidazol-2-yl}carbamate] | > 7.00 | > 7.00 | – | –
COC(=O)Nc1nc2ccc(C(=O)c3ccccc3C(=O)Nc3cc(C)ccc3F)cc2[nH]1 [Entry 419, methyl {6-[(2-{[(2-fluoro-5-methylphenyl)amino]carbonyl}phenyl)carbonyl]-1H-benzimidazol-2-yl}carbamate] | > 7.00 | > 7.00 | – | –
C#Cc1cc(C)cc(N2C(=O)c3ccccc3C2(O)c2ccc3[nH]c(NC(=O)OC)nc3c2)c1 (stereo not shown) [Entry 383, methyl {5-[2-(3-ethynyl-5-methylphenyl)-1-hydroxy-3-oxo-2,3-dihydro-1H-isoindol-1-yl]-1H-benzimidazol-2-yl}carbamate] | > 7.00 | > 7.00 | – | –
O=C(Nc1nc2cc(C3(O)c4ccccc4C(=O)N3c3cccc(Cl)c3F)ccc2[nH]1)C1CCC1 (stereo not shown) [Entry 327, N-{5-[2-(3-chloro-2-fluorophenyl)-1-hydroxy-3-oxo-2,3-dihydro-1H-isoindol-1-yl]-1H-benzimidazol-2-yl}cyclobutanecarboxamide] | > 7.00 | > 7.00 | – | –
COC(=O)Nc1nc2cc(C3(O)c4ccccc4C(=O)N3c3cc(Cl)c(F)c(Cl)c3)ccc2[nH]1 (stereo not shown) [Entry 246, methyl {5-[2-(3,5-dichloro-4-fluorophenyl)-1-hydroxy-3-oxo-2,3-dihydro-1H-isoindol-1-yl]-1H-benzimidazol-2-yl}carbamate] | – | – | 5.00 to 6.00 | 6.00 to 7.00
COC(=O)Nc1nc2cc(C3(O)c4ccccc4C(=O)N3c3cc(Cl)cc(Cl)c3)ccc2[nH]1 (stereo not shown) [Entry 155, methyl {5-[2-(3,5-dichlorophenyl)-1-hydroxy-3-oxo-2,3-dihydro-1H-isoindol-1-yl]-1H-benzimidazol-2-yl}carbamate] | – | – | > 7.00 | > 7.00
O=C1COc2ccc(C3(O)c4ccccc4C(=O)N3c3cccc(OC(F)(F)F)c3)cc2N1 (stereo not shown) [Entry 60, 6-(1-hydroxy-3-oxo-2-{3-[(trifluoromethyl)oxy]phenyl}-2,3-dihydro-1H-isoindol-1-yl)-2H-1,4-benzoxazin-3(4H)-one] | – | – | ≤ 5.00 | ≤ 5.00

Further lines, results first:

pIC50 (B-Raf; [1]) | pIC50 (c-Raf; [2]) | pIC50 (B-Raf; read-out: bRaf IC50) | pIC50 (c-Raf; read-out: cRaf-1 IC50) | Compound
– | – | > 7.00 | > 7.00 | O=C(CCCN1CCCCC1)Nc1nc2cc(C3(O)c4ccccc4C(=O)N3Cc3ccccc3)ccc2[nH]1 (stereo not shown) [Entry 263, N-{5-[1-hydroxy-3-oxo-2-(phenylmethyl)-2,3-dihydro-1H-isoindol-1-yl]-1H-benzimidazol-2-yl}-4-piperidin-1-ylbutanamide]
> 7.00 | > 7.00 | – | – | CN1CCC(COC(=O)Nc2nc3cc(C4(O)c5ccccc5C(=O)N4Cc4ccccc4)ccc3[nH]2)CC1 (stereo not shown) [Entry 314, (1-methylpiperidin-4-yl)methyl {5-[1-hydroxy-3-oxo-2-(phenylmethyl)-2,3-dihydro-1H-isoindol-1-yl]-1H-benzimidazol-2-yl}carbamate]
> 7.00 | > 7.00 | – | – | O=C(CCCN1CCCC1)Nc1nc2cc(C3(O)c4ccccc4C(=O)N3Cc3ccccc3)ccc2[nH]1 (stereo not shown) [Entry 278, N-{5-[1-hydroxy-3-oxo-2-(phenylmethyl)-2,3-dihydro-1H-isoindol-1-yl]-1H-benzimidazol-2-yl}-4-pyrrolidin-1-ylbutanamide]
– | – | > 7.00 | > 7.00 | O=C(Nc1nc2cc(C3(O)c4ccccc4C(=O)N3Cc3ccccc3)ccc2[nH]1)OCc1ccccc1 (stereo not shown) [Entry 125, phenylmethyl {5-[1-hydroxy-3-oxo-2-(phenylmethyl)-2,3-dihydro-1H-isoindol-1-yl]-1H-benzimidazol-2-yl}carbamate]
– | – | > 7.00 | > 7.00 | COC(=O)Nc1nc2cc(C3(O)c4ccccc4C(=O)N3Cc3cccc(Cl)c3)ccc2[nH]1 (stereo not shown) [Entry 122, methyl (5-{2-[(3-chlorophenyl)methyl]-1-hydroxy-3-oxo-2,3-dihydro-1H-isoindol-1-yl}-1H-benzimidazol-2-yl)carbamate]
– | – | > 7.00 | > 7.00 | CC#CCOC(=O)Nc1nc2cc(C3(O)c4ccccc4C(=O)N3Cc3ccccc3)ccc2[nH]1 (stereo not shown) [Entry 109, but-2-yn-1-yl {5-[1-hydroxy-3-oxo-2-(phenylmethyl)-2,3-dihydro-1H-isoindol-1-yl]-1H-benzimidazol-2-yl}carbamate]
– | – | 6.00 to 7.00 | 6.00 to 7.00 | COC(=O)Nc1nc2cc(C3(O)c4ccccc4C(=O)N3Cc3cccc(I)c3)ccc2[nH]1 (stereo not shown) [Entry 121, methyl (5-{1-hydroxy-2-[(3-iodophenyl)methyl]-3-oxo-2,3-dihydro-1H-isoindol-1-yl}-1H-benzimidazol-2-yl)carbamate]
– | – | > 7.00 | > 7.00 | CC#CCOC(=O)Nc1nc2cc(C3(O)c4ccccc4C(=O)N3[C@H](C)c3ccccc3)ccc2[nH]1 (stereo partly drawn) [Entry 148, but-2-yn-1-yl (5-{1-hydroxy-3-oxo-2-[(1R)-1-phenylethyl]-2,3-dihydro-1H-isoindol-1-yl}-1H-benzimidazol-2-yl)carbamate]
– | – | > 7.00 | > 7.00 | CCNC(=O)Nc1nc2cc(C3(O)c4ccccc4C(=O)N3Cc3ccccc3)ccc2[nH]1 (stereo not shown) [Entry 149, N-ethyl-N′-{5-[1-hydroxy-3-oxo-2-(phenylmethyl)-2,3-dihydro-1H-isoindol-1-yl]-1H-benzimidazol-2-yl}urea]
